Active and inactive are the calls of the source.
Assays:
[1] = molecular target: Heat shock protein HSP 90-alpha (Homo sapiens, UniProt P07900); type: functional, organism-based
[2] = molecular target: T1, Serine/threonine-protein phosphatase (Candida dubliniensis (strain CD36 / CBS 7987 / NCPF 3949 / NRRLY-17841) (Yeast), UniProt B9W6M3); experiment: calcineurin pathway inhibitors in yeast reporter, dose response, S. cerevisiae, CDRE-lacZ, luminescence, secondary (AID 2388); type: functional, cell-based;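 also: yeast reporter cells carrying a calcineurin-responsive lacZ construct stimulated with calcium chloride; luminescent beta-galactosidase reporter signal in whole cells rather than isolated phosphatase activity; potency for inhibition where a drop in reporter signal means calcineurin blockade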
T1 sequence (B9W6M3 whole entry): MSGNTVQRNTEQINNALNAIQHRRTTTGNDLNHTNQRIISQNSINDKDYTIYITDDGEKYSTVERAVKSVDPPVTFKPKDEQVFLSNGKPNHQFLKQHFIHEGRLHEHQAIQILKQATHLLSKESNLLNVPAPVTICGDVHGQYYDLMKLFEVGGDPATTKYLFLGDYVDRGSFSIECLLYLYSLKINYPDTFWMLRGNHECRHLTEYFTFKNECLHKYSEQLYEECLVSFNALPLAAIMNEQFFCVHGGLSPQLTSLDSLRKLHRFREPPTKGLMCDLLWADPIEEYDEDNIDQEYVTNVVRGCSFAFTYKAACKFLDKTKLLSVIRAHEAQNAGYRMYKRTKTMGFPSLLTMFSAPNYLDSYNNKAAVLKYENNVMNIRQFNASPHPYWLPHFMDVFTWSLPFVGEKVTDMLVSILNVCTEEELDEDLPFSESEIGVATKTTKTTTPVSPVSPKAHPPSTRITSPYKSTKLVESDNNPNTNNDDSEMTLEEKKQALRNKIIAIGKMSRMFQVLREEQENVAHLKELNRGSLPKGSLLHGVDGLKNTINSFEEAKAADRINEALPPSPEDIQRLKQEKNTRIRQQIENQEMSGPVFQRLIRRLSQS

Vero = Vero cell cytotoxicity, cytotoxicity control for flavivirus capping enzyme inhibitors (AID 588742); type: functional; settings: Chlorocebus sabaeus
[3] = molecular target: ATP-dependent molecular chaperone HSP82 (Candida albicans (strain WO-1) (Yeast), UniProt C4YTQ8); experiment: loss of DOC-induced GRE-beta-galactosidase reporter signal, dose response, Hsp90 inhibitor project, S. cerevisiae, luminescence (AID 2400); type: functional, cell-based;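 also: beta-galactosidase luminescence from glucocorticoid response element reporter as proxy for Hsp90 function; inhibitor potency where signal loss means Hsp90 inhibition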
Sequence of ATP-dependent molecular chaperone HSP82 (C4YTQ8 whole entry): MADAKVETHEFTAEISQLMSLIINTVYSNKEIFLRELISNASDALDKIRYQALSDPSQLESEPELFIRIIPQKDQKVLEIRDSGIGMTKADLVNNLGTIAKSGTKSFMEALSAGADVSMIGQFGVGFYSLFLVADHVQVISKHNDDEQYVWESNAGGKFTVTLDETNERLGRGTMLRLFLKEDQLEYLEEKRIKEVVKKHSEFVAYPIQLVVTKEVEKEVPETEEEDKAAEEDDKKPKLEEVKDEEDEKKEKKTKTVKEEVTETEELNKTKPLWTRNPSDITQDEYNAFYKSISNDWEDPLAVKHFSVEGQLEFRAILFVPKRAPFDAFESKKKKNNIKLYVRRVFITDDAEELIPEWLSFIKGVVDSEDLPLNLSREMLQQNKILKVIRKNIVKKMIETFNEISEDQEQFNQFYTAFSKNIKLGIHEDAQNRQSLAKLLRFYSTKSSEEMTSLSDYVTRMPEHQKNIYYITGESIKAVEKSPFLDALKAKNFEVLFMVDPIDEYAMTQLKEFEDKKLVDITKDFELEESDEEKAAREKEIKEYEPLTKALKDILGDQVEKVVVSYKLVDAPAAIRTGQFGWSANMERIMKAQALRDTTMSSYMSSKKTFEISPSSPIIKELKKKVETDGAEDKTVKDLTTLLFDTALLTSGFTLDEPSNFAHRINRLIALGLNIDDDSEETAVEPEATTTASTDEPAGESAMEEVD

Streptokinase A = molecular target: T2, Streptokinase A (Streptococcus pyogenes serotype M1, UniProt P10520); experiment: S. pyogenes streptokinase expression inhibitors, potency, dose response, plasminogen activation absorbance, OD405 (AID 1914); type: functional, Streptococcus pyogenes M1 GAS;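 also: secreted streptokinase activity via plasminogen activation per viability signal from cell pellet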
T2 sequence (P10520 whole entry): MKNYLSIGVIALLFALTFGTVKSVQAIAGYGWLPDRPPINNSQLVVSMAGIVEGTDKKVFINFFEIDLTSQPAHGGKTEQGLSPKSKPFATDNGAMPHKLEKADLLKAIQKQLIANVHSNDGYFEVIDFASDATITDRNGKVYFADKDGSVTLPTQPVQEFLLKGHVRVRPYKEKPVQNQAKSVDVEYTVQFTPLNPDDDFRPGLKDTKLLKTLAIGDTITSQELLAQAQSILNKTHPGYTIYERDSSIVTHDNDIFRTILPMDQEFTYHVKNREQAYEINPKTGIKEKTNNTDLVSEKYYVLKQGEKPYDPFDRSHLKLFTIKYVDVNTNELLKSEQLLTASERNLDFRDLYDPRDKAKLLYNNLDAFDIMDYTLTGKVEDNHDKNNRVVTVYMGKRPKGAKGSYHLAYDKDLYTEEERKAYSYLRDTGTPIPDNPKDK

[4] = tested on: Streptococcus sp. 'group A'; experiment: growth inhibition of control SK(-) GAS strain, dose response, counter-screen for streptokinase expression inhibitor project, luminescence, kanamycin, BacTiterGlo, confirmation (AID 1900); type: functional, organism-based
[5] = NIH-3T3 fibroblast cytotoxicity, dose response, cytotoxicity control, cell-based, fluorescence, Alamar Blue, secondary assay (AID 2327); type: functional;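 also: NIH-3T3 mouse fibroblasts cultured with fluconazole at 8 µg/mL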
[6] = C. albicans growth with fluconazole, confirmation, fluorescence, retest (AID 2467); type: functional, cell-based
Streptococcus = experiment: Group A Streptococcus viability loss, dose response, counter-screen for streptokinase expression inhibitor project, luminescence, BacTiterGlo (AID 1915); type: functional, organism-based;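 also: potency for reduction of bacterial viability or growth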
[7] = molecular target: T3, DNA repair protein RAD52 homolog (Homo sapiens, UniProt P43351); type: functional, biochemical
T3 sequence (P43351 whole entry): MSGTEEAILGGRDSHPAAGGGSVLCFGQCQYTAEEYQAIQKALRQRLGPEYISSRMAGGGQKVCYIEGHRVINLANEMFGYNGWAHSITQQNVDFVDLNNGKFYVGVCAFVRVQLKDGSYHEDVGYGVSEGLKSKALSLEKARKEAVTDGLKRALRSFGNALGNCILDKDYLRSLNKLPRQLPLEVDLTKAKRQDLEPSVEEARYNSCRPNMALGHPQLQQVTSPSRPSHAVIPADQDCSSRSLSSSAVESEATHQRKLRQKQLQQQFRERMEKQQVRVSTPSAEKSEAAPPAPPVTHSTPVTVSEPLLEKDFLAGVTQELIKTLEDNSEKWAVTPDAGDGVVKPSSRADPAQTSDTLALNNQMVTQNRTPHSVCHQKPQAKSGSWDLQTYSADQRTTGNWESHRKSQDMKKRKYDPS

[8] = Luminescence Cell-Based Dose Retest to Confirm Inhibitors of Cancer Stem Cells. [Related pubchem assays (depositor defined):AID2717, AID2721]; type: functional; settings: Homo sapiens
[9] = molecular target: T4, High affinity choline transporter 1 (Homo sapiens, UniProt Q9GZV3); experiment: CHT inhibitors, dose response, cell-based, 5-point CRC, membrane potential dye (AID 504840); type: functional
T4 sequence (Q9GZV3 whole entry): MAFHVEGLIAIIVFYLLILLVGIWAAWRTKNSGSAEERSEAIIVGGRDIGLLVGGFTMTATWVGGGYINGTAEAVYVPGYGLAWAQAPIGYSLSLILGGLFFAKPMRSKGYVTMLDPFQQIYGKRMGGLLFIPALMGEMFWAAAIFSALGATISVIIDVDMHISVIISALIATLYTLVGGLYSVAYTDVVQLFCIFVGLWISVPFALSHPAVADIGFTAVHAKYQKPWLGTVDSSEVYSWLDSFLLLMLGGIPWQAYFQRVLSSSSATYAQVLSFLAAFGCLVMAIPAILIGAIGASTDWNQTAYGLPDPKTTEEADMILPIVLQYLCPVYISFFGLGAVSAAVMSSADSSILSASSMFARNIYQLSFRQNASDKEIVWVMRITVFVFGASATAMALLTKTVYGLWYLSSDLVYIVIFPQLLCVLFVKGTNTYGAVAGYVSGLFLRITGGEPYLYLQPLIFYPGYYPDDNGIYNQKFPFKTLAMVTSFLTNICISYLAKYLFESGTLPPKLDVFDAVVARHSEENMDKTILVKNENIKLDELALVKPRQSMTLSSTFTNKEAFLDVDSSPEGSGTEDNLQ

Tumor necrosis factor = Tumor necrosis factor (Homo sapiens, UniProt P01375); experiment: TNFa-triggered NF-kB activation inhibitors, SAR follow-up, cell-based, revised (AID 2337); type: functional
Sequence of Tumor necrosis factor (P01375 whole entry, the tested form may be a part): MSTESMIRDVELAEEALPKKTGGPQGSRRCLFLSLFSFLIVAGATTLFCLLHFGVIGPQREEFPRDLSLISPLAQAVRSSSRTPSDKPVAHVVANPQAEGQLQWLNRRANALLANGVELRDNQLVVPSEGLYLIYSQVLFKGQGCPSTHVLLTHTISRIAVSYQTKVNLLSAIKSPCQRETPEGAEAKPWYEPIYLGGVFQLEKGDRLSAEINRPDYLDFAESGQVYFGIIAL

[10] = molecular target: T5, Nucleotide-binding oligomerization domain-containing protein 1 (Homo sapiens, UniProt Q9Y239); experiment: NOD1 signaling inhibitors, SAR follow-up, revised (AID 2333); type: functional
T5 sequence (Q9Y239 whole entry): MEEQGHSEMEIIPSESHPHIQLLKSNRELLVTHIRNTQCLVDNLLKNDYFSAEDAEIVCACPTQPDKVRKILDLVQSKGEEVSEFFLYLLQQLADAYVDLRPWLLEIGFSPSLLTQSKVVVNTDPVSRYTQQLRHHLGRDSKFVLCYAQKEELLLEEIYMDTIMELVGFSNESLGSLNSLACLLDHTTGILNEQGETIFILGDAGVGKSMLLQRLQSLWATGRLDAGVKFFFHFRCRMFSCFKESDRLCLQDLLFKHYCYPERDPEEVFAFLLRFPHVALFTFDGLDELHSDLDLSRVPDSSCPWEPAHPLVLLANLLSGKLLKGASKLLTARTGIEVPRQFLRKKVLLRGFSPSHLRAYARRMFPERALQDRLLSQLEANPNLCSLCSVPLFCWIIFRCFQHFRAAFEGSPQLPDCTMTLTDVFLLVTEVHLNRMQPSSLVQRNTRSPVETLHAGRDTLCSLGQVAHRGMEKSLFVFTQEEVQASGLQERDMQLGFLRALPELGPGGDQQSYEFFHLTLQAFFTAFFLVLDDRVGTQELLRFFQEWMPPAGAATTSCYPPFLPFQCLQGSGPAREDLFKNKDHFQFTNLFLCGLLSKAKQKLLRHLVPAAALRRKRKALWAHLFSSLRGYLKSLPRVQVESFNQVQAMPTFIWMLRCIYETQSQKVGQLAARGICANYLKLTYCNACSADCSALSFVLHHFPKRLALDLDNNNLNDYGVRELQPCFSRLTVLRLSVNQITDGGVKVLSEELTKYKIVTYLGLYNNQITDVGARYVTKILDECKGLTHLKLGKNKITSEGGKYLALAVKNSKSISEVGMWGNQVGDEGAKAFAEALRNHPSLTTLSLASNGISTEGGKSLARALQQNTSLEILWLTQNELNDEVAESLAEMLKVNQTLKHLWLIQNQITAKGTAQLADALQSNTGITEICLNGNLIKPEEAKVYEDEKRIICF

HEK293 = experiment: cells; settings: Homo sapiens;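 also: cells exposed to compound for 14 hours overnight before viability readout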

Row | Compound | AC50 [1] | EC50 [2] | CC50 (Vero) | EC50 [3] | EC50 (Streptokinase A) | EC50 [4] | EC50 [5] | EC50 [6] | EC50 (Streptococcus) | AC50 [7] | AC50 [8] | IC50 [9] | IC50 (Tumor necrosis factor) | IC50 [10] | IC50 (HEK293)
1 | [O-][n+]1cccc2c(Br)cc(Br)c(O)c21 | 3.15 µM (active) | > 180 µM (inactive) | > 40 µM (active) | > 160 µM (inactive) | > 150 µM (not active) | 0.865 µM (active) | > 150 µM (inconclusive) | 0.651 µM (active) | 18.7 µM (active) |  |  |  |  |  | 
2 | CC(C)N1CCc2c(sc(NC(=O)c3nc4ccccc4s3)c2C(N)=O)C1 |  | > 180 µM (inactive) |  | 51.8 µM (active) |  |  | > 150 µM (inactive) | 0.491 µM (active) |  | 9.55 µM (active) |  |  |  |  | 
3 | O=C(NNC1=C(C(=O)C(F)(F)F)CCC1)c1cccc(Cl)c1 |  | > 180 µM (inactive) |  | 24.6 µM (active) | > 150 µM (not active) | 1.23 µM (active) | > 150 µM (inactive) | 0.741 µM (active) | 2.77 µM (active) |  | 1.95 µM (active) | 11 µM (active) |  |  | 
4 | COc1ccc(NC(=O)c2ccc(CN3CCc4ccccc43)cc2)cc1 |  |  |  |  |  |  |  |  |  |  |  |  | > 20 µM (inactive) | > 20 µM (inactive) | > 20 µM (inactive)

— ChEMBL document CHEMBL1201862, “PubChem BioAssay data set” (2004)
